pIC50: −log10 of the molar value.

This passage reports IC50 results from ChEMBL document CHEMBL1144317, “Antimitotic activity and reversal of breast cancer resistance protein-mediated drug resistance by stilbenoids from Bletilla striata” (Bioorg Med Chem Lett, 2005).

The target in the test is Beta tubulin. Kind of test: Inhibition of tubulin polymerization interacting at the colchicine binding site. Format: functional.

Broadly, the pIC50 is the IC50 on a negative log10 scale, so that one unit is a factor of ten. With `COc1c(Cc2ccc(O)cc2)c(O)c(Cc2ccc(O)cc2)c2c1-c1ccc(O)cc1CC2`, the pIC50 is 4.52.

Compound `COc1cc(O)c(Cc2ccc(O)cc2)c(CCc2cccc(O)c2)c1Cc1ccc(O)cc1` showed a pIC50 of 5.00.

Compound `COc1cc(O)c(-c2c(O)cc3c(c2OC)-c2ccc(O)cc2CC3)c2c1-c1ccc(O)cc1CC2` had a pIC50 of 4.52.

In turn, `CC[C@]1(O)C[C@@H]2CN(CCc3c([nH]c4ccccc34)[C@@](C(=O)OC)(c3cc4c(cc3OC)N(C)[C@H]3[C@@](O)(C(=O)OC)[C@H](OC(C)=O)[C@]5(CC)C=CCN6CC[C@]43[C@@H]65)C2)C1` [VINBLASTINE] gave a pIC50 of 6.00.

`COc1cc(O)c2c(c1Cc1ccc(O)cc1)CCc1cc(O)ccc1-2` showed a pIC50 of 3.52.

Take `COc1cc(O)cc(CCc2cccc(O)c2)c1Cc1ccc(O)cc1`: the pIC50 is 5.00.

Compound `COc1cc(O)c(-c2c(O)cc(OC)c3c2ccc2cc(O)ccc23)c2c1-c1ccc(O)cc1CC2` [CIRRHOPETALANTHRIN] had a pIC50 of 4.52.

Turning to `COc1cc(O)c(-c2c(O)cc(OC)c3c2ccc2cc(O)ccc23)c2ccc3cc(O)ccc3c12` [CIRRHOPETALANTHIN], the pIC50 was 4.52.

`COc1c(O)ccc2c1ccc1c(Cc3ccc(O)cc3)c(O)cc(OC)c12` gave a pIC50 of 4.52.
